Experimental data taken from patent US20160375006A1, “USES OF PARALOG-SELECTIVE INHIBITORS OF GSK3 KINASES” (priority 2012, published 2016).
Like-named read-outs stand apart in the source and are kept apart here.

Tests used:
MSK1 = MSK1 (Homo sapiens, UniProt O75582)
Procedure: (§1) This was completed utilizing one of two assays depending on the kinase being examined.
(§2) A solution of IMAP binding reagent (IMAP Screening Express kit; Molecular Devices) (60 μL) was added to each well and incubated for 30 minutes.
(§3) A solution of termination buffer (QuickScout Screening assist MSA; Carna Biosciences) (60 μL) was added to each well. The entire reaction mixture was then applied to a LabChip3000 system (Caliper Life Science) and the product and substrate peptide peaks were separated and quantified.

KIT(V560G) = KIT(V560G) (Homo sapiens, UniProt P10721, V560G)
Procedure: as §1, §2, §3
(§4) The assay utilized was identical to that of the single point inhibitory activity determination (MSA) but run in dose response. […] A solution of termination buffer (QuickScout Screening assist MSA; Carna Biosciences) (60 μL) was added to each well. The entire reaction mixture was then applied to a LabChip3000 system (Caliper Life Science) and the product and substrate peptide peaks were separated and quantified.

PLK4 = PLK4 (Homo sapiens, UniProt O00444)
TRKB = TRKB (Homo sapiens, UniProt Q16620)
Procedure: as §1, §2, §3, §4

PASK = PASK (Homo sapiens, UniProt Q96RG2)
Procedure: as §1, §2, §3, §4

LIMK1 = biological target: T1, LIMK1 (Homo sapiens, UniProt P53667); assay: Carna kinase panel; format: biochemical
T1 construct: purchased Carna Biosciences
Procedure: as §1, §2, §3

LKB1 = LKB1 (Homo sapiens, UniProt Q15831)
TRKC = TRKC (Homo sapiens, UniProt Q16288)
Procedure: as §1, §2, §3, §4

PDGFRα(V561D) = PDGFRα(V561D) (Homo sapiens, UniProt P16234, V561D)
Procedure: as §1, §2, §3, §4

MST3 = MST3 (Homo sapiens, UniProt Q9Y6E0)
Procedure: as §1, §2, §3, §4

TTK = TTK (Homo sapiens, UniProt P33981)
FGFR4(V550L) = FGFR4(V550L) (Homo sapiens, UniProt P22455, V550L)
Procedure: as §1, §2, §3, §4

KIT(D816E) = KIT(D816E) (Homo sapiens, UniProt P10721, D816E)
KIT(D816E), sequence (P10721 26-976 D816E): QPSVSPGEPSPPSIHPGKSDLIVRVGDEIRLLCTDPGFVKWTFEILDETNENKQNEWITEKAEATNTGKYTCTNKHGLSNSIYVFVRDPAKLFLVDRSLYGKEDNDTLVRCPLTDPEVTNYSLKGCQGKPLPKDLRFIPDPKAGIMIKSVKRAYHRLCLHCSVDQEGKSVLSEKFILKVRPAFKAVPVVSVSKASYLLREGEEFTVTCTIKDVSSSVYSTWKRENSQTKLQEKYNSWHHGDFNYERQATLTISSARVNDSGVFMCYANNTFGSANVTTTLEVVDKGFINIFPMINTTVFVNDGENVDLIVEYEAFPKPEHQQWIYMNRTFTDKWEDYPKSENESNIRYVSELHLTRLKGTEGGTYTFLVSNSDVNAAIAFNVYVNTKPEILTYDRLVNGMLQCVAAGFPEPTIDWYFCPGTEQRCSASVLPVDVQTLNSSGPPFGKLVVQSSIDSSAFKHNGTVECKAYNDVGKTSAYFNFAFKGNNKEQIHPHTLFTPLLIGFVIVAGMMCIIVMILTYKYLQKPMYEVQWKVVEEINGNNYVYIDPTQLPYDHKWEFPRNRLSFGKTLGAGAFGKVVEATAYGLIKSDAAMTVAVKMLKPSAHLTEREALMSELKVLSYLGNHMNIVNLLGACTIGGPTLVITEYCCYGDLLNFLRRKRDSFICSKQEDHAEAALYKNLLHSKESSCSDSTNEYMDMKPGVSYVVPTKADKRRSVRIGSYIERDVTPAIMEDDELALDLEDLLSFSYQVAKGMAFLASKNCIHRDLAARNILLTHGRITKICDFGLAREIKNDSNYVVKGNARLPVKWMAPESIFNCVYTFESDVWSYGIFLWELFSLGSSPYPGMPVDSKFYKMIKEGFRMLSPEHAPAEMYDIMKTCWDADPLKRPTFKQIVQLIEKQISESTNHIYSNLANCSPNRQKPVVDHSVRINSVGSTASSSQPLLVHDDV

NEK7 = NEK7 (Homo sapiens, UniProt Q8TDX7)
Procedure: as §1, §2, §3, §4

PLK2 = PLK2 (Homo sapiens, UniProt Q9NYY3)
PLK2, sequence (Q9NYY3 whole entry): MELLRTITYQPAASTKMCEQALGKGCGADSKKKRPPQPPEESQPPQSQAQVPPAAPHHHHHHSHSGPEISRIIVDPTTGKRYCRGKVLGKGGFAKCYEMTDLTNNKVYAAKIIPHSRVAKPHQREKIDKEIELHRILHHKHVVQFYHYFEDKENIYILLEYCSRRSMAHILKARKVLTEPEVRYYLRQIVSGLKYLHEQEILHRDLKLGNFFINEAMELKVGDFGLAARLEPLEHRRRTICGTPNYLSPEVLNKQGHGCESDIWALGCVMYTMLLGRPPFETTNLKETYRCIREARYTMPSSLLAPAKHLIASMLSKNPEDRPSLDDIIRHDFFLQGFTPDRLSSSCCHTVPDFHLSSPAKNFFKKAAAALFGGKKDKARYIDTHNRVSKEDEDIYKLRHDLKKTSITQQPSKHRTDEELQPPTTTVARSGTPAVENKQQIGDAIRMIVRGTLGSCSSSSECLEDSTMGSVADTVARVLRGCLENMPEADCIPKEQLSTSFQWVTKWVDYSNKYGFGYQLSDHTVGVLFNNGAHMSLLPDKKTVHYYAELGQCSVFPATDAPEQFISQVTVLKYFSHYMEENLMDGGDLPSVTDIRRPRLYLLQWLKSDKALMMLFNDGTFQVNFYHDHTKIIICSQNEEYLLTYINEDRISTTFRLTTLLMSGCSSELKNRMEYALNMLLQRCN
Procedure: as §1, §2, §3, §4

WEE1 = WEE1 (Homo sapiens, UniProt P30291)
MAP4K2 = MAP4K2 (Homo sapiens, UniProt Q12851)
Procedure: as §1, §2, §3, §4

EML4-ALK = EML4-ALK (Homo sapiens, UniProt Q9UM73)
Procedure: as §1, §2, §3, §4

TEC = TEC (Homo sapiens, UniProt P42680)
Procedure: as §1, §2, §3, §4

EPHB4 = EPHB4 (Homo sapiens, UniProt P54760)
Procedure: as §1, §2, §3, §4

CK1δ = CK1δ (Homo sapiens, UniProt P48730)
CK1δ, sequence (P48730 whole entry): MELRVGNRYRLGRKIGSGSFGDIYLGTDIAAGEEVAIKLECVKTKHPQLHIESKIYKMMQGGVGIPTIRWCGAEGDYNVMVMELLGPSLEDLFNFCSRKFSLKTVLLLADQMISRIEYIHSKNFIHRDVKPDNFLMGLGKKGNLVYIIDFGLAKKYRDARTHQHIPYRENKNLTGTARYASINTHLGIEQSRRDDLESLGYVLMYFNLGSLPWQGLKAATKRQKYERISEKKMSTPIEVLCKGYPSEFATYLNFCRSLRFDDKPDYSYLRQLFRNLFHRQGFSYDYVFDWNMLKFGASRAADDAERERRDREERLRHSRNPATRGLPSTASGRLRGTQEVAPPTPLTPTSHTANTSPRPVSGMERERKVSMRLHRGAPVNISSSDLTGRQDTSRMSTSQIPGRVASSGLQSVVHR

BMPR1A = BMPR1A (Homo sapiens, UniProt P36894)
MARK1 = MARK1 (Homo sapiens, UniProt Q9P0L2)
MARK1, sequence (Q9P0L2 whole entry): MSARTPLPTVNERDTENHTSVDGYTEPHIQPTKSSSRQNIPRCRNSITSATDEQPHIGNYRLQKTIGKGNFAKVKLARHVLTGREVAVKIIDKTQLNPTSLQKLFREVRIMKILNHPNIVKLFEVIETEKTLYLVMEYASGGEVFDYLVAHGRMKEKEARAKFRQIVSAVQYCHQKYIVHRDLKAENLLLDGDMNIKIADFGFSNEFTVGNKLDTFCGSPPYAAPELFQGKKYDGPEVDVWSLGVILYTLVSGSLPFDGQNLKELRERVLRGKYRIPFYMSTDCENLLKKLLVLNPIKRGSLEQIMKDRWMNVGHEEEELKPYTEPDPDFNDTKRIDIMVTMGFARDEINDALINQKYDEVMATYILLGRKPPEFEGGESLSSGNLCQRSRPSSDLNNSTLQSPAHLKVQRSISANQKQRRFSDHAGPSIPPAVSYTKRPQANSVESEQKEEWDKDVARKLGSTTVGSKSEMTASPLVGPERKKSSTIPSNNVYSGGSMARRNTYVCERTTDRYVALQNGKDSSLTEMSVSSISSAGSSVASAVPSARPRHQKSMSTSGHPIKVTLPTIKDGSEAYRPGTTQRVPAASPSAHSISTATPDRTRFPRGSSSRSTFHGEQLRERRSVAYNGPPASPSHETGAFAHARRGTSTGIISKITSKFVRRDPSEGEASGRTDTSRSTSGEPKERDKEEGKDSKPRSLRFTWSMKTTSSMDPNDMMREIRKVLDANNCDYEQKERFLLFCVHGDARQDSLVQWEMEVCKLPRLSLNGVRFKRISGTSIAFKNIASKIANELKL
Procedure: as §1, §2, §3, §4

NuaK2 = NuaK2 (Homo sapiens, UniProt Q9H093)
Procedure: as §1, §2, §3, §4

PDGFRβ = PDGFRβ (Homo sapiens, UniProt P09619)
PDGFRβ, sequence (P09619 33-1106): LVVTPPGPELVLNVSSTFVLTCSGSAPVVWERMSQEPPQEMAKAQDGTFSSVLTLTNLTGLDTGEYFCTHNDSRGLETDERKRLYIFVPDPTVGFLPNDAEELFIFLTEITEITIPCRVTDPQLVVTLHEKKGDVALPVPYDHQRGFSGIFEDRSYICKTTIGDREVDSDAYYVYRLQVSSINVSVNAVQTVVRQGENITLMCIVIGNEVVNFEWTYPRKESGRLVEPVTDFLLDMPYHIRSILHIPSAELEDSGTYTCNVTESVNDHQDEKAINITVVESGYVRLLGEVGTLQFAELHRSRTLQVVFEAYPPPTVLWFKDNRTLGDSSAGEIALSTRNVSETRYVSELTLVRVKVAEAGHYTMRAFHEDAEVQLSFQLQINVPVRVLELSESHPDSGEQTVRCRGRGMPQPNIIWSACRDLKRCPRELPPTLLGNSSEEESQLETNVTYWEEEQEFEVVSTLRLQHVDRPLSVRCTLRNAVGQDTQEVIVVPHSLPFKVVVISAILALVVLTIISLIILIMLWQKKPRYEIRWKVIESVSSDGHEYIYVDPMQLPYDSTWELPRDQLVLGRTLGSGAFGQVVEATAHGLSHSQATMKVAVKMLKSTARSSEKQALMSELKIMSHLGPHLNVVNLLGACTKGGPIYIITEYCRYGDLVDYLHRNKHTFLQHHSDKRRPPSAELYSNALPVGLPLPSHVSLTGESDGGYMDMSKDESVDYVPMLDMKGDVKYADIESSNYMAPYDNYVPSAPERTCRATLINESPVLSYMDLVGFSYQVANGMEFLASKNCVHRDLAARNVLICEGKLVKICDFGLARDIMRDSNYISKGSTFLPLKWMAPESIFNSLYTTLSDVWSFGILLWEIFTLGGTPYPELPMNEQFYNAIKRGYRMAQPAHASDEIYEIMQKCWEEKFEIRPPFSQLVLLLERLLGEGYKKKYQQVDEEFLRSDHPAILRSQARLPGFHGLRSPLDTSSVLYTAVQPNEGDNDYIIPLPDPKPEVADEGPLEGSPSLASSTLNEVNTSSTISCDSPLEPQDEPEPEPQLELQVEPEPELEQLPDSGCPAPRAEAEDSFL
Procedure: as §1, §2, §3, §4

MET(D1228H) = MET(D1228H) (Homo sapiens, UniProt P08581, D1228H)
MET(M1250T) = MET(M1250T) (Homo sapiens, UniProt P08581, M1250T)
EGFR(d746-750) = EGFR(d746-750) (Homo sapiens, UniProt P00533, DEL746-750)
Procedure: as §1, §2, §3

CDK5/p25 = CDK5/p25 (Homo sapiens, UniProt Q00535)
CDK5/p25, sequence (Q00535 whole entry, species assumed): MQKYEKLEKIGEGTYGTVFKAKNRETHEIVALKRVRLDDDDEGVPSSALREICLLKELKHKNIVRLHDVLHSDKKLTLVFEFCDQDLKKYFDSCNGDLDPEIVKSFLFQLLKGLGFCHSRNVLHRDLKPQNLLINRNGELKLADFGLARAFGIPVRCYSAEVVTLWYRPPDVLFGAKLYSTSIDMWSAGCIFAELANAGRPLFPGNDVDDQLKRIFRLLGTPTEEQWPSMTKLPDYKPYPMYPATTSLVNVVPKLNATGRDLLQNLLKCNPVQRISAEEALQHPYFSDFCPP
CDK5/p25, sequence (Q15078 99-307 partner limits assumed, species assumed): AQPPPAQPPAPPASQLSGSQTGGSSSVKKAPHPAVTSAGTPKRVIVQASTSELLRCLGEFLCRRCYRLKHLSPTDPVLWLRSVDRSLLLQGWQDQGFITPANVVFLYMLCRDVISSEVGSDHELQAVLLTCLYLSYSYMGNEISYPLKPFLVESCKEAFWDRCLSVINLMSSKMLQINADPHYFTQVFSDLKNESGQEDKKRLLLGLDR
Procedure: as §1, §2, §3, §4

GSK3α = GSK3α (Homo sapiens, UniProt P49840)
GSK3α, sequence (P49840 whole entry): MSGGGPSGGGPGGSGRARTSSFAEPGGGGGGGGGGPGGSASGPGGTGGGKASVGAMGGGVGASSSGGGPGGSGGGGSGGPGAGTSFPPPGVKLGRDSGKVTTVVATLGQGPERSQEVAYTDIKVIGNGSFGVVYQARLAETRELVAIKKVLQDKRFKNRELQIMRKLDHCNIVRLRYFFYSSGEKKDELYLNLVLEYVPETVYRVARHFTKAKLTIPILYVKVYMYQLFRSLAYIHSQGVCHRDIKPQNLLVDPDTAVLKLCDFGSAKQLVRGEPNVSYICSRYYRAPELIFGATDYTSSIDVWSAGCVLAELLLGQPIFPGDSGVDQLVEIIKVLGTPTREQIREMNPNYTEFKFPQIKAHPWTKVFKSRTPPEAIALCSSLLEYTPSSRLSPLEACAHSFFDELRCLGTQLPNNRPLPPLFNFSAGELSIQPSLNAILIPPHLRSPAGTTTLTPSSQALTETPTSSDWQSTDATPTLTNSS
Procedure: as §1, §2, §3, §4

LYNb = LYNb (Homo sapiens, UniProt P07948)
Procedure: as §1, §2, §3, §4

[1] = tested on: audiogenic seizure phenotype; conditions: Fmr1 KO mice, single dose 30 mg/kg i.p.
FGFR4(N535K) = FGFR4(N535K) (Homo sapiens, UniProt P22455, N535K)
Procedure: as §1, §2, §3

[2] = tested on: pGSK3α/β, β-catenin, CRMP2 in SH-SY5Y cells; conditions: SH-SY5Y cells, 1, 5, 10 and 30 μM, 24 hours
Procedure: The samples were incubated and gently rocked for 1 h before centrifuged at 12 000 g for 10 min. The supernatant total cell lysate was subject to subsequent western blot analysis. […] Membranes were incubated overnight with primary antibodies in a solution of Tris-buffered saline containing Tween 20 (TBST, Sigma) and 5% dry milk. Incubation of secondary antibodies was performed for 1 h at room temperature in a solution of 5% dry milk in TBST.

[3] = tested on: protein synthesis in hippocampal slices; conditions: Fmr1 knockout mice hippocampal slices, 10 μM
Procedure: 500 um hippocampal slices are recovered in ACSF for 3 hours, followed by incubation in GSK3ai or vehicle for an hour, with Actinomycin D (to block transcription) for the last half hour of drug incubation. Slices are then transferred to new chambers containing ACSF with drug/vehicle and S35 (a radiolabeled Met/Cys) for 30 minutes to measure protein synthesis. Slices are then processed and read in a scintillation counter to determine the rate of protein synthesis.

KIT(V560G), sequence (P10721 26-976 V560G): as the sequence (P10721 26-976 D816E) above, with V535G, E791D counted along it

In the case of CC(C)(C)Cc1[nH]nc2c1[C@](C)(c1ccccc1)C1=C(CC(C)(C)CC1=O)N2 [BRD3731], the “% Inhibition 10 μM” value (MSK1; 10 μM) is reported as 7.4%, the “% Inhibition 10 μM” value (KIT(V560G); 10 μM) is reported as 1.4% and the “% Inhibition 10 μM” value (PLK4) is reported as 14.3%. The “% Inhibition 10 μM” value (TRKB; 10 μM) was 11.0%, the “% Inhibition 10 μM” value (PASK; 10 μM) was 10.7% and the “% Inhibition 10 μM” value (LIMK1) was 7.5%. The “% Inhibition 10 μM” value (LKB1) was 3.4%, the “% Inhibition 10 μM” value (TRKC; 10 μM) was 12.1% and the “% Inhibition 10 μM” value (PDGFRα(V561D); 10 μM) was 6.6%. For the same compound, the “% Inhibition 10 μM” value (MST3; 10 μM) was 7.4%, the “% Inhibition 10 μM” value (TTK) was 5.4% and the “% Inhibition 10 μM” value (FGFR4(V550L); 10 μM) was 2.9%. For the same compound, the “% Inhibition 10 μM” value (KIT(D816E)) was 3.9%, the “% Inhibition 10 μM” value (NEK7; 10 μM) was −3.2% and the “% Inhibition 10 μM” value (PLK2; 10 μM) was 8.5%. The “% Inhibition 10 μM” value (WEE1) was −9.1%, the “% Inhibition 10 μM” value (MAP4K2; 10 μM) was −7.5% and the “% Inhibition 10 μM” value (EML4-ALK; 10 μM) was −7.2%. The “% Inhibition 10 μM” value (TEC; 10 μM) was 2.3%, the “% Inhibition 10 μM” value (EPHB4; 10 μM) was 1.9% and the “% Inhibition 10 μM” value (CK1δ; 10 μM) was 10.7%. For the same compound, the “% Inhibition 10 μM” value (BMPR1A) was −4.4%, the “% Inhibition 10 μM” value (MARK1; 10 μM) was 9.3% and the “% Inhibition 10 μM” value (NuaK2; 10 μM) was −2.8%. For the same compound, the “% Inhibition 10 μM” value (PDGFRβ; 10 μM) was 3.1%, the “% Inhibition 10 μM” value (MET(D1228H)) was 0.0% and the “% Inhibition 10 μM” value (MET(M1250T)) was 0.8%. The “% Inhibition 10 μM” value (EGFR(d746-750); 10 μM) was 2.5%, the IC50 (CDK5/p25; CDK5/p25) was 8.9 µM and the “% Inhibition 10 μM” value (CDK5/p25; CDK5/p25, 10 μM) was 48.3%. For the same compound, the “Fold Selectivity” value (CDK5/p25; IC50 CDK5/p25 / IC50 GSK3β) was 331.0 fold, the “% Inhibition 10 μM” value (GSK3α) was 96.8% and the “Fold Selectivity” value (GSK3α) was 7.8 fold. For the same compound, the IC50 (GSK3α) was 0.211 µM and the “% Inhibition 10 μM” value (LYNb; 10 μM) was 2.9%.
In the case of CC[C@@]1(c2ccccc2)C2=C(CC(C)(C)CC2=O)Nc2n[nH]cc21 [BRD0705], the “% Inhibition at 10 μM” value (MSK1) is reported as −27.1%, the “% Inhibition at 10 μM” value (KIT(V560G)) is reported as −1.7% and the Audiogenic seizure phenotype [1] is reported as “reduces audiogenic seizures”. For the same compound, the “% Inhibition at 10 μM” value (TRKB) was 4.5%, the “% Inhibition at 10 μM” value (PASK) was 0.2% and the “% Inhibition at 10 μM” value (TRKC) was 6.4%. The “% Inhibition at 10 μM” value (PDGFRα(V561D)) was −3.7%, the “% Inhibition at 10 μM” value (MST3) was 11.7% and the “% Inhibition at 10 μM” value (FGFR4(N535K)) was 22.1%. For the same compound, the “% Inhibition at 10 μM” value (FGFR4(V550L)) was −0.4%, the “% Inhibition at 10 μM” value (NEK7) was −1.0% and the “% Inhibition at 10 μM” value (PLK2) was 4.0%. For the same compound, the “pGSK3αY279 level (Western blot)” value [2] was “dose dependent decrease”, the “pGSK3βY216 and β-catenin levels (Western blot)” value [2] was “without effecting” and the “% Inhibition at 10 μM” value (MAP4K2) was −0.7%. For the same compound, the “% Inhibition at 10 μM” value (EML4-ALK) was 3.4%, the “% Inhibition at 10 μM” value (TEC) was −0.4% and the “% Inhibition at 10 μM” value (EPHB4) was 14.7%. The “% Inhibition at 10 μM” value (CK1δ) was −3.9%, the “% Inhibition at 10 μM” value (MARK1) was 3.1% and the “% Inhibition at 10 μM” value (NuaK2) was −1.7%. The “% Inhibition at 10 μM” value (PDGFRβ) was 0.3%, the Excess protein synthesis [3] was “correction of excess protein synthesis” and the “% Inhibition at 10 μM” value (EGFR(d746-750)) was −12.0%. For the same compound, the “% Inhibition at 10 μM” value (CDK5/p25; CDK5/p25) was 52.0%, the IC50 (CDK5/p25; read-out: IC50 CDK5/p25) was 9.2 µM and the “% Inhibition at 10 μM” value (LYNb) was 2.2%.
